Results: patent publication US5922677A, “Therapeutic method and compounds of use therein” (Auckland UniServices Limited, priority 1994, dated 1999)
Counter-ions that a name gives are not always drawn. No end group written: not given here.

Key:
[1] = tested on: osteoblast-like cells from fetal rat calvariae; assay: Numbers of osteoblast-like cells in culture; assay type: cell-based; conditions: for effect on cell number (osteoblast proliferation): growth-arrested cultures, 24 hours
From the text: Cells were either (a) growth-arrested as a result of being cultured in the presence of 0.1% bovine serum albumin or (b) were actively growing in culture medium containing 2% fetal calf serum. n=6 in each group. Data are mean ± sem. Statistical significance (by Student's test) of differences from control: *p≤0.05; **p<0.005; ***p<0.001.

[2] = tested on: osteoblast-like cells from fetal rat calvariae; assay: Numbers of osteoblast-like cells in culture; assay type: cell-based; conditions: for Osteoblast Numbers after 24 h culture: mean ± SD
calvariae of adult mice = assay: In vivo calvarial study, local injection over hemicalvaria, histomorphometry; conditions: 4.1×10^-9 mol daily for 5 days over right hemicalvaria
From the text: FIG. 4 Comparison of the in vivo effects of rat amylin, rat calcitonin (CT) and rat CGRP in adult mice. The daily dose of each peptide was 4.1×10^-9 mol. Data are expressed as the ratio of each index measured in the injected hemicalvaria to that measured in the contralateral, uninjected hemicalvaria. n=5 in each group. Data are mean ± sem. Significant differences (p<0.05) between the injected and uninjected hemicalvariae are indicated by asterisks.
The effects of the peptides on bone histology in vivo were assessed by subcutaneously injecting the peptide daily for 5 days over the periosteum of the right hemicalvaria of adult, male Swiss-Webster mice. The animals were sacrificed 1 week following the last injection. Non-decalcified sections of the calvariae were prepared as described previously, Cornish, J., Callon, K., King, A., Edgar, S., and Reid, I. R. (1993) Endocrinology 132, 1359-1366. Quantitative histomorphometry was performed by an operator blinded to the treatment each animal had received. Data are expressed as the ratio of each index measured in the injected hemicalvaria to that measured in the contralateral, uninjected hemicalvaria of the same animal and have been evaluated by paired t tests.

mouse calvaria = assay: Systemic in vivo experiment, calvarial histomorphometry; parameters: species or system mice
Method: We have also conducted the following systemic in vivo experiment where amylin at a concentration of 10^-8 M is injected subcutaneously.
Calvarial Histomorphometry
11 mice in each treatment group.
Differences between control and amylin groups were statistically tested using an unpaired Student t test.
Measurements are recorded per mm calvarial length.

[3] = tested on: osteoblast-like cells from fetal rat calvariae; assay: Thymidine incorporation into osteoblast-like cells; assay type: cell-based; conditions: time-course (FIG. 3), medium with 0.1% bovine serum albumin
Method: FIG. 3 The effect of rat amylin on thymidine incorporation into osteoblast-like cells from fetal rat calvariae. Statistical significance of differences from control at each time-point: *p=0.002; **p<0.001. In both experiments the culture medium contained 0.1% bovine serum albumin. n=6 in each group. Data are mean ± sem.
Osteoblast-like cells were prepared by sequential collagenase digestion of calvariae from 20 day fetal rats, as described previously, Lowe, C., Cornish, J., Callon, K, Martin, T. J., and Reid, I. R. (1991) J. Bone Miner. Res. 6, 1277-1283.

[4] = systemic test, summary in words
[5] = injected vs uninjected hemicalvaria

Compound: O=C(O)C(F)(F)F [TFA, trifluoroacetic acid]
- cell numbers ([1]; 4×10^-8 M, exposed for 24 hrs, control 5.6±0.3×10^4): 4.2±0.3×10^4

Compound: Amylin, TFA Salt: amylin as trifluoroacetic acid salt, generally the tetra-TFA salt, as isolated by HPLC (KCNTATCATQRLANFLVHSSNNFGAILSSTNVGSNTY; not fully specified (C-terminus, bridges); cysteine pairing not given here; also: trifluoroacetate salt; UniProt P10997 34-70, looked up)
- Osteoblast Numbers after 24 h culture ([2]; 10^-8 M, control 4.6 ± 0.64): 5.6 ± 0.96 10^4 cells/well

Compound: Amylin, chloride salt: amylin salt prepared by dissolving peptide in 3 mM hydrochloric acid and freeze-drying (KCNTATCATQRLANFLVHSSNNFGAILSSTNVGSNTY; not fully specified (C-terminus, bridges); cysteine pairing not given here; also: chloride salt; UniProt P10997 34-70, looked up)
- Osteoblast Numbers after 24 h culture ([2]; 10^-8 M, control 4.6 ± 0.64): 7.9 ± 1.00 10^4 cells/well

Compound: CGRP: rat calcitonin gene-related peptide-1, a peptide related to amylin (SCNTATCVTHRLAGLLSRSGGVVKDNFVPTNVGSEAF; not fully specified (C-terminus, bridges); cysteine pairing not given here; UniProt P01256 83-119, looked up)
- effect on cell number (osteoblast proliferation) ([1]; dose-response (FIG. 1a)): increased osteoblast proliferation, but the effect was smaller and only significant at 10^-8 M

Compound: Rat calcitonin: rat calcitonin peptide, comparator (CGNLSTCMLGTYTQDLNKFHTFPQTSIGVGAP; ends and bridges not checked; cysteine pairing not given here; UniProt P01257 85-116, looked up) [reference compound]
- effect on cell number (osteoblast proliferation) ([1]; 10^-9 -10^-7 M): without effect
- eroded surface (calvariae of adult mice): reduced eroded surface to a similar extent to amylin
- mineralized bone area increase (calvariae of adult mice; non-significant): 4%

Compound: amylin: 37-amino acid peptide cosecreted with insulin from pancreatic beta cells; species not printed at place (rat amylin per FIG. 1-4 legends)
- stimulation of osteoblast proliferation ([1]; actively growing cells (2% fetal calf serum, FIG. 1b)): also observed in actively growing cells
- effect on cell number (osteoblast proliferation) ([1]; dose-response (FIG. 1a)): substantial, dose-related increase in cell number
- indices of bone formation compared to control (mouse calvaria; [4]): significant increases in all indices of bone formation
- indices of bone resorption compared to control (mouse calvaria; [4]): significant decreases in indices of bone resorption
- osteoid area (mouse calvaria; systemic, subcutaneous, 10^-8 M, mean, per mm calvarial length, control 0.0005): 0.0018 mm^2
- osteoclast surface (mouse calvaria; systemic, subcutaneous, 10^-8 M, mean, per mm calvarial length, control 0.094): 0.019 mm
- eroded surface (mouse calvaria; systemic, subcutaneous, 10^-8 M, mean, per mm calvarial length, control 0.294): 0.081 mm
- osteoblast surface (mouse calvaria; systemic, subcutaneous, 10^-8 M, mean, per mm calvarial length, control 0.85): 1.76 mm
- osteoclast number (mouse calvaria; systemic, subcutaneous, 10^-8 M, mean, per mm calvarial length, control 3.6): 1.2
- osteoblast number (mouse calvaria; systemic, subcutaneous, 10^-8 M, mean, per mm calvarial length, control 73.6): 147.5
- DNA synthesis assessed by thymidine incorporation [3]: sustained increase in DNA synthesis
- bone resorption (calvariae of adult mice; [5]): decreases in bone resorption of comparable magnitude
- indices of bone formation (calvariae of adult mice; [5]): two- to three-fold increases
- cell number over time ([2]; time-course 6 to 48 hours (FIG. 2)): increased in amylin-treated cells from 6 to 48 hours

Compound: parathyroid hormone
- reduced cell numbers ([1]; 10^-8 M, at 24 hours): 18%

Compound: rat amylin: rat form of the 37-amino acid peptide amylin (KCNTATCATQRLANFLVRSSNNLGPVLPPTNVGSNTY; not fully specified (C-terminus, bridges); cysteine pairing not given here; UniProt P12969 38-74, looked up)
- Osteoblast Numbers after 24 h culture ([2]; 10^-9 M, control 4.2 ± 0.6): 5.9 ± 0.8 x10^4 cells/well

Compound: salmon calcitonin
- effect on cell number (osteoblast proliferation) ([1]; 10^-7 M): without effect
